Laboratory results published in PMC7179312 (Antimicrobial Agents and Chemotherapy, 2020).

Assays:
[1] = system: P. aeruginosa PAM1154 carrying pUCP24 vector (PAM4175); assay: MIC, CLSI broth microdilution; assay type: cell-based; conditions: Pseudomonas aeruginosa, drug alone
Text: The effects of KPC mutations on resistance to various antibiotics were investigated. For these studies, pUCP24 plasmids carrying wild-type and mutant blaKPC-2 genes as well as the pUCP24 vector were transformed into PAM1154, an efflux-deficient strain of Pseudomonas aeruginosa. In this host, the effect of β-lactamases on β-lactam MIC is amplified due to the slowed uptake of β-lactams across the low-permeability outer membrane without interference by efflux of either β-lactams or BLIs. Consequently, this host allows detection of β-lactamase activity (as an MIC increase) of low-catalytic-efficiency enzymes that rely heavily on the low permeability of the outer membrane. Using the strain that lacks efflux pumps ensures no interference from efflux in interpreting results. We next evaluated the steady-state protein expression levels in bacterial cells. […] The observed discrepancy with our results could be attributed to the difference in either the expression vector or host bacteria.
(§1) For microbiological studies, wild-type blaKPC-2 and its mutant variants were cloned into the shuttle vector pUCP24. Resulting plasmids were transformed in the efflux-deficient strain of P. aeruginosa PAM1154 using selection on 15 μg/ml of gentamicin. Using a strain of P. aeruginosa as opposed to E. coli as a host for various cloned genes was based on the following consideration. As well documented elsewhere ([41]), P. aeruginosa has a low-permeability outer membrane; consequently, the effect of β-lactamases on MIC is amplified in P. aeruginosa compared to that in E. coli due to the slowed uptake of β-lactams. Thus, this host is appropriate to detect β-lactamase activity (as an MIC increase) of low-catalytic-efficiency enzymes that rely heavily on low permeability of the outer membrane. […] MICs were determined using the Clinical and Laboratory Standards Institute (CLSI) broth microdilution method as described in CLSI document M07-A11 ([42]). Potentiation of antibiotic activity by various BLIs in bacterial strains carrying wild-type (WT) and mutant KPC-2 genes was performed using standard checkerboard methodology ([43]). BLI potency was defined as PV50 (PV, potentiation value). PV50 is the minimal concentration of a BLI that is required to reduce the antibiotic MIC to the middle of the MIC range (E50) where the highest MIC is the MIC for a KPC-producing strain with no inhibitor added and the lowest MIC is the MIC for the vector-only strain, corresponding to the complete inhibition of KPC. E50 is calculated as the square root of the product of the antibiotic MICs for the KPC-producing and the vector-only strains.

[2] = system: P. aeruginosa PAM1154 carrying pUCP24 vector (PAM4175); assay: Checkerboard potentiation of antibiotic activity by BLIs; assay type: cell-based, Pseudomonas aeruginosa
Text: BLI potency was defined as PV50 (PV, potentiation value) of antibiotic potentiation. PV50 is the concentration of a BLI that is required to reduce the antibiotic MIC to the middle of the MIC range where the highest MIC is the MIC for a KPC-producing strain with no inhibitor added and the lowest MIC is the MIC for the vector-alone strain, which corresponds to complete inhibition of KPC. As a given MIC is directly related to the β-lactamase activity, PV50 might be considered the concentration of a BLI that is required to achieve half-effect of inhibition of β-lactamase activity (in whole cells) to hydrolyze an antibiotic of interest. […] However, the accurate determination of PV50 requires the MIC range to be relatively wide.
as §1, with “Potentiation of antibiotic activity by various BLIs in bacterial strains carrying wild-type (WT) and mutant KPC-2 genes was performed using standard checkerboard methodology ([43]).” left out
7 MIC range between the MIC of the beta-lactamase producing strain and the MIC of the vector only strain. The middle point is calculated as the square root of the product of the
8 antibiotic MIC values for the beta-lactamas e-producing and the vector onl y strain.

[3] = system: P. aeruginosa PAM1154 carrying pUCP24-KPC-2 (PAM4135); assay: MIC, CLSI broth microdilution; assay type: cell-based; conditions: Pseudomonas aeruginosa; PAM4135, pUCP24-KPC-2; drug alone
Text: (§2) The effects of KPC mutations on resistance to various antibiotics were investigated. For these studies, pUCP24 plasmids carrying wild-type and mutant blaKPC-2 genes as well as the pUCP24 vector were transformed into PAM1154, an efflux-deficient strain of Pseudomonas aeruginosa. In this host, the effect of β-lactamases on β-lactam MIC is amplified due to the slowed uptake of β-lactams across the low-permeability outer membrane without interference by efflux of either β-lactams or BLIs. Consequently, this host allows detection of β-lactamase activity (as an MIC increase) of low-catalytic-efficiency enzymes that rely heavily on the low permeability of the outer membrane. Using the strain that lacks efflux pumps ensures no interference from efflux in interpreting results. We next evaluated the steady-state protein expression levels in bacterial cells.
as §1, with “Potentiation of antibiotic activity by various BLIs in bacterial strains carrying wild-type (WT) and mutant KPC-2 genes was performed using standard checkerboard methodology ([43]).” left out

[4] = system: P. aeruginosa PAM1154 carrying pUCP24-KPC-2::L169P (PAM4751); assay: MIC, CLSI broth microdilution; assay type: cell-based, Pseudomonas aeruginosa; conditions: for MIC: Pseudomonas aeruginosa, PAM4751, pUCP24-KPC-2::L169P, drug alone
Text: as §2
as §1, with “Potentiation of antibiotic activity by various BLIs in bacterial strains carrying wild-type (WT) and mutant KPC-2 genes was performed using standard checkerboard methodology ([43]).” left out

[5] = system: P. aeruginosa PAM1154 carrying pUCP24-KPC-2::D179Y (PAM4639); assay: MIC, CLSI broth microdilution; assay type: cell-based, Pseudomonas aeruginosa; conditions: for MIC: Pseudomonas aeruginosa, PAM4639, pUCP24-KPC-2::D179Y, drug alone
Text: as §2
as §1, with “Potentiation of antibiotic activity by various BLIs in bacterial strains carrying wild-type (WT) and mutant KPC-2 genes was performed using standard checkerboard methodology ([43]).” left out

[6] = molecular target: T1, KPC-2 D179Y (Klebsiella pneumoniae, UniProt Q9F663, D178Y); assay: Kinetics of nitrocefin and ceftazidime hydrolysis by purified enzyme; assay type: biochemical
T1 construct: 6xHis (C); made in house; host or cells: E. coli BL21(DE3) pLys, pET28a
Method: (§3) Enzymes were mixed with various concentrations of nitrocefin in 50 mM sodium phosphate (pH 7.0)–0.1 mg/ml of bovine serum albumin (buffer A), and substrate cleavage was monitored at 490 nm every 10 s for 10 min at 37°C on a SpectraMax plate reader (Molecular Devices, San Jose, CA). Initial rates of nitrocefin cleavage were calculated and used to obtain Km and kcat values with Prism software (GraphPad, San Diego, CA).
(§4) Substrate cleavage was monitored at 260 nm every 30 s at room temperature using a SpectraMax plate reader. The reaction was monitored until OD260 values reached a plateau. Resulting OD260 versus time reaction profiles were fitted to the following equation using Prism software: At = A∞ + (A0 − A∞) × e^−k×t, where At is absorbance at time t, A0 is initial absorbance, and A∞ is final absorbance. In this equation, k = kcat/Km × [E], which allows calculatation of kcat/Km knowing the enzyme concentration ([44]).

[7] = molecular target: T2, KPC-2 (Klebsiella pneumoniae, UniProt Q9F663); assay: as above; assay type: biochemical; conditions: substrate hydrolysis by purified KPC-2
T2 construct: 6xHis (C); made in house; host or cells: E. coli BL21(DE3) pLys, pET28a
Method: as §3, §4

[8] = molecular target: T3, KPC-2 L169P (Klebsiella pneumoniae, UniProt Q9F663, L168P); assay: as above; assay type: biochemical
T3 construct: 6xHis (C); made in house; host or cells: E. coli (pET28a construct; BL21(DE3) pLys is named only for wild type and D179Y)
Method: as §3, §4

[9] = system: CC(C)(O/N=C(\C(=O)N[C@@H]1C(=O)N2C(C(=O)[O-])=C(C[n+]3ccccc3)CS[C@H]12)c1csc(N)n1)C(=O)O; assay: purified protein, by the assay type; assay type: biochemical; conditions: other: substrate hydrolysis by purified KPC-2; pH 7.0; 37.0 °C
[10] = substrate hydrolysis by purified KPC-2 D179Y
[11] = substrate hydrolysis by purified KPC-2 L169P

## C[C@H]1[C@H](NC(=O)/C(=N\OC(C)(C)C(=O)O)c2csc(N)n2)C(=O)N1S(=O)(=O)O [Aztreonam, aztreonam]
[1]
  MIC: 0.125 µg/mL

## CC(C)(O/N=C(\C(=O)N[C@@H]1C(=O)N2C(C(=O)[O-])=C(C[n+]3ccccc3)CS[C@H]12)c1csc(N)n1)C(=O)O [Ceftazidime, ceftazidime]
[2]; no BLI
  Antibiotic MIC, No BLI: 0.25 µg/mL
[3]
  MIC: 32 µg/mL
[1]
  MIC: 0.25 µg/mL
[4]
  MIC: 256 µg/mL
[5]
  MIC: 512 µg/mL

## C[C@@H](O)[C@H]1C(=O)N2C(C(=O)O)=C(S[C@@H]3CN[C@H](C(=O)N(C)C)C3)[C@H](C)[C@H]12 [Meropenem, meropenem]
[3]
  MIC: 64 µg/mL
[1]
  MIC: 0.125 µg/mL
[4]; L169P strain
  reduction of MIC vs wild-type KPC-2 strain: 64 fold
[4]
  MIC: 1 µg/mL
[4]; {}
  increase of MIC vs vector-only strain: 8-16 fold
[5]; D179Y strain
  reduction of MIC vs wild-type KPC-2 strain: 64 fold
[5]
  MIC: 1 µg/mL
[5]; {}
  increase of MIC vs vector-only strain: 8-16 fold

## O=C(Cc1cccs1)N[C@@H]1C(=O)N2C(C(=O)O)=C(/C=C/c3ccc([N+](=O)[O-])cc3[N+](=O)[O-])CS[C@H]12 [Nitrocefin, nitrocefin]
[6]; KPC-2 D179Y
  reduction of kcat vs wild-type KPC-2: approximately 6,000 fold
[6]; [10]
  Km: 26 ± 12 µM
  kcat: 0.023 ± 0.002 s⁻¹
[7]
  Km: 36 ± 5 µM
  kcat: 132 ± 13 s⁻¹
[8]; KPC-2 L169P
  reduction of kcat vs wild-type KPC-2: ~300 fold
[8]; [11]
  Km: 40 ± 10 µM
  kcat: 0.47 ± 0.04 s⁻¹

## CCN1CCN(C(=O)N[C@@H](C(=O)N[C@@H]2C(=O)N3[C@@H]2SC(C)(C)[C@@H]3C(=O)O)c2ccccc2)C(=O)C1=O [Piperacillin, piperacillin]
[2]; avibactam 0 µg/ml
  Beta-lactam MIC in the presence of BLI: 0.125 µg/mL
[2]; avibactam 0.008 µg/ml
  Beta-lactam MIC in the presence of BLI: 0.125 µg/mL
[2]; avibactam 0.031 µg/ml
  Beta-lactam MIC in the presence of BLI: 0.125 µg/mL
[2]; avibactam 0.06 µg/ml
  Beta-lactam MIC in the presence of BLI: 0.125 µg/mL
[2]; avibactam 0.5 µg/ml
  Beta-lactam MIC in the presence of BLI: 0.125 µg/mL
[2]; avibactam 64 µg/ml
  Beta-lactam MIC in the presence of BLI: 0.03 µg/mL
[2]; avibactam […]
  Beta-lactam MIC in the presence of BLI: 0.125 µg/mL
[2]; vaborbactam 0 µg/ml
  Beta-lactam MIC in the presence of BLI: 0.125 µg/mL
[2]; vaborbactam 0.008 µg/ml
  Beta-lactam MIC in the presence of BLI: 0.125 µg/mL
[2]; vaborbactam 0.031 µg/ml
  Beta-lactam MIC in the presence of BLI: 0.125 µg/mL
[2]; vaborbactam 0.06 µg/ml
  Beta-lactam MIC in the presence of BLI: 0.125 µg/mL
[2]; vaborbactam 0.5 µg/ml
  Beta-lactam MIC in the presence of BLI: 0.125 µg/mL
[2]; vaborbactam 1 µg/ml
  Beta-lactam MIC in the presence of BLI: 0.125 µg/mL
[2]; vaborbactam 2 µg/ml
  Beta-lactam MIC in the presence of BLI: 0.125 µg/mL
[2]; vaborbactam 4 µg/ml
  Beta-lactam MIC in the presence of BLI: 0.125 µg/mL
[2]; vaborbactam 8 μg/ml
  Beta-lactam MIC in the presence of BLI: 0.125 µg/mL
[2]; vaborbactam 16 µg/ml
  Beta-lactam MIC in the presence of BLI: 0.125 µg/mL
[2]; vaborbactam […]
  Beta-lactam MIC in the presence of BLI: 0.125 µg/mL
[1]
  MIC: 0.06 µg/mL

## KPC-2 (Klebsiella pneumoniae)
[9]
  kcat: > 2.6 s⁻¹
  kcat/Km: 870 ± 110 M⁻¹ s⁻¹
